In test [1] the target is Non-receptor tyrosine-protein kinase TYK2 (Homo sapiens, UniProt P29597). In words: TYK2 (h) Enzyme Reaction.
Experimental: (§1) Mg/ATP mixture was added to start the reaction. After incubation at room temperature for 40 minutes, 0.5% phosphoric acid was added to stop the reaction.
In test [2] the target is Tyrosine-protein kinase JAK1 (Homo sapiens, UniProt P23458). In words: JAK1 (h) Enzyme Reaction.
Experimental: as §1
Test [3] has as its target Tyrosine-protein kinase JAK2 (Homo sapiens, UniProt O60674). Put plainly: JAK2 (h) Enzyme Reaction.
Experimental: as §1
Test [4] concerns the target T1, Tyrosine-protein kinase JAK3 (Homo sapiens, UniProt P52333).
T1 sequence (P52333 whole entry): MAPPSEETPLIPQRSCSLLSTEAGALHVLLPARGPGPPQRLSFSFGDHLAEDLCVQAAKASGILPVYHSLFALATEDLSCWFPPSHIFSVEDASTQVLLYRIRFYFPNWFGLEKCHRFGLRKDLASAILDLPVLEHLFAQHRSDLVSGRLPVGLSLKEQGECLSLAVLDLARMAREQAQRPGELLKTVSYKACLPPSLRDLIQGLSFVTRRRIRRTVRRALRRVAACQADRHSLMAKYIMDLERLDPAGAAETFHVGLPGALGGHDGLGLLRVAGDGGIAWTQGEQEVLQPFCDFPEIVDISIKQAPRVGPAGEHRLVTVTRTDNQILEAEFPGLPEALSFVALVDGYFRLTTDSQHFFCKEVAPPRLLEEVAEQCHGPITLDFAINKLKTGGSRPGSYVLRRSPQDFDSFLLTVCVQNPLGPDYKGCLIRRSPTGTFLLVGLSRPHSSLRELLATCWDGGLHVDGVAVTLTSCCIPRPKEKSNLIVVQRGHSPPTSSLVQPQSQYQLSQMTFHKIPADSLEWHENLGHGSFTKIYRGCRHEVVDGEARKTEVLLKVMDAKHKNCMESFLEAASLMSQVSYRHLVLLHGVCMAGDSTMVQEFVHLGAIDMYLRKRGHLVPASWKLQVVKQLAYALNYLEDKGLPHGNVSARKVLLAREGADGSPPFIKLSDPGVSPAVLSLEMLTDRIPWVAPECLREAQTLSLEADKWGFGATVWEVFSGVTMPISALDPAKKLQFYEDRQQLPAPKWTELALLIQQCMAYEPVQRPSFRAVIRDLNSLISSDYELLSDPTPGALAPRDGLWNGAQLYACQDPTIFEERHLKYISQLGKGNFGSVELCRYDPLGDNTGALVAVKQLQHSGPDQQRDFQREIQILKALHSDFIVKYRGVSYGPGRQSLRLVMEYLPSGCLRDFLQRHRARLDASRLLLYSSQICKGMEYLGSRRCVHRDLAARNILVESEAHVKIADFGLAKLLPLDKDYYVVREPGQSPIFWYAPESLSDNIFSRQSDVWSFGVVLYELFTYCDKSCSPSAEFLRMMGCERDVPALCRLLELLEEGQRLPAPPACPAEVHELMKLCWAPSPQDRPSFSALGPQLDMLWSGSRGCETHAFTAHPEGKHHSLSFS
Put plainly: JAK3 (h) Enzyme Reaction.
Experimental: as §1

Data on 1 molecule can be found in BindingDB's records for patent US12419873 (Zhuhai United Laboratories Co., 2025).

The IC50 is the point on the concentration scale where inhibition reaches its midpoint.

Chain of Tyrosine-protein kinase JAK1 (P23458 whole entry): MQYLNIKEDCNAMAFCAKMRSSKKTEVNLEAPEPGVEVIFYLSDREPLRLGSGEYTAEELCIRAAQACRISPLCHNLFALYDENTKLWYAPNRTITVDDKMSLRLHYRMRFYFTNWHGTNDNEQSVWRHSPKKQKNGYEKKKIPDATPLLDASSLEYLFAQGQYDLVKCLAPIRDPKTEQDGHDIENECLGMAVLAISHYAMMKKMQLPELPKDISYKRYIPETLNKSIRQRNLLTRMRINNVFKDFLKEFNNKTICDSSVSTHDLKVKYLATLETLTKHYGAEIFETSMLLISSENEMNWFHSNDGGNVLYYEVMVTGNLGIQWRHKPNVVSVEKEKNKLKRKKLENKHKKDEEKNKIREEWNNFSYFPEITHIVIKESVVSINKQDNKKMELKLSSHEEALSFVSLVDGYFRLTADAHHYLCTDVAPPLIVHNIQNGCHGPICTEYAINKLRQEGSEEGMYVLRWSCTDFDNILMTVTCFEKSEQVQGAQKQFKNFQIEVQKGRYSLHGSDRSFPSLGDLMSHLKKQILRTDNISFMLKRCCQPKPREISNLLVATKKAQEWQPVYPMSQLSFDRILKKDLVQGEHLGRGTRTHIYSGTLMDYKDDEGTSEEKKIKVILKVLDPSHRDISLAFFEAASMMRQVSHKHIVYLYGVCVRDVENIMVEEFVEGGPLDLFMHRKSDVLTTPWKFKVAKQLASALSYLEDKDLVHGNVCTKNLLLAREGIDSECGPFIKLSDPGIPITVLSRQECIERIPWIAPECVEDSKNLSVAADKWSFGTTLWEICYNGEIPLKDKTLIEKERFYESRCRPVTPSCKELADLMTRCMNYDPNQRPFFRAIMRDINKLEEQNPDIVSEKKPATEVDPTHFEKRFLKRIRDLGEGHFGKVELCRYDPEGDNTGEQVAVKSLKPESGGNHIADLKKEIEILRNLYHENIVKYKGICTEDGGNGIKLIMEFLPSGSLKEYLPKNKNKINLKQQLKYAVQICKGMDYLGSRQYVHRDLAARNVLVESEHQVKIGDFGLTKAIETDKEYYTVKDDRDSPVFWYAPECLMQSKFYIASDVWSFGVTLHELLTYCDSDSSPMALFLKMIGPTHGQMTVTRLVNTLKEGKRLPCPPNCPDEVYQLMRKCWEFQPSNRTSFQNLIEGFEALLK
Chain of Non-receptor tyrosine-protein kinase TYK2 (P29597 whole entry): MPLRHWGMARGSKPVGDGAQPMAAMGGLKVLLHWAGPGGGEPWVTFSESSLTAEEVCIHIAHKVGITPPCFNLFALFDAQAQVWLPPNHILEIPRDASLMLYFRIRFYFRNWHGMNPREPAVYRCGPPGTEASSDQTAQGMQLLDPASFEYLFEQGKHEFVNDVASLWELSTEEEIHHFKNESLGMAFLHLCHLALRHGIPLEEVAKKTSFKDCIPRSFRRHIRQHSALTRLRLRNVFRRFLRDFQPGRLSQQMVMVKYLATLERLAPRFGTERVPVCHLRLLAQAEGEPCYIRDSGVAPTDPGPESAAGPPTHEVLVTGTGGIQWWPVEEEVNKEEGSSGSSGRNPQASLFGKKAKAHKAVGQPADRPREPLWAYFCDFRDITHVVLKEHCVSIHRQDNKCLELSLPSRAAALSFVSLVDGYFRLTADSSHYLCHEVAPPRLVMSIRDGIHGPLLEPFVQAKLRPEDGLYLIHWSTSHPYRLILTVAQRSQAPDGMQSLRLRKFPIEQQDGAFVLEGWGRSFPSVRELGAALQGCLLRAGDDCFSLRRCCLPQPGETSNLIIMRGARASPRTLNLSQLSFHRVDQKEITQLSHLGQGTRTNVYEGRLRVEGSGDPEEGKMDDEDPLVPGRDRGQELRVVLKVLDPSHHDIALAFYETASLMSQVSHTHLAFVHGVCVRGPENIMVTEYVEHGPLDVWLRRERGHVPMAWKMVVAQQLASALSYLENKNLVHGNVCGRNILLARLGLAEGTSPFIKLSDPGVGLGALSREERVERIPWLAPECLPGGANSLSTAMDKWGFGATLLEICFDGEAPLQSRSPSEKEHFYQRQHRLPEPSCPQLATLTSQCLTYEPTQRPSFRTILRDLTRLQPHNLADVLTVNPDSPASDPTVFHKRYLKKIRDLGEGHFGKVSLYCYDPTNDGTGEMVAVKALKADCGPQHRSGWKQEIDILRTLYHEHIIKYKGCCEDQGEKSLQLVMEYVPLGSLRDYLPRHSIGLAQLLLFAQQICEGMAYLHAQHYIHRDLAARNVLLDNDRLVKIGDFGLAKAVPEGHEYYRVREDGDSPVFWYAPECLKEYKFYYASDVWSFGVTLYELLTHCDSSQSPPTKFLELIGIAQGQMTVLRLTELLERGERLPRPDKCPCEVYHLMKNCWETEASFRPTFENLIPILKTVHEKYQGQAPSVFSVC
Chain of Tyrosine-protein kinase JAK2 (O60674 whole entry): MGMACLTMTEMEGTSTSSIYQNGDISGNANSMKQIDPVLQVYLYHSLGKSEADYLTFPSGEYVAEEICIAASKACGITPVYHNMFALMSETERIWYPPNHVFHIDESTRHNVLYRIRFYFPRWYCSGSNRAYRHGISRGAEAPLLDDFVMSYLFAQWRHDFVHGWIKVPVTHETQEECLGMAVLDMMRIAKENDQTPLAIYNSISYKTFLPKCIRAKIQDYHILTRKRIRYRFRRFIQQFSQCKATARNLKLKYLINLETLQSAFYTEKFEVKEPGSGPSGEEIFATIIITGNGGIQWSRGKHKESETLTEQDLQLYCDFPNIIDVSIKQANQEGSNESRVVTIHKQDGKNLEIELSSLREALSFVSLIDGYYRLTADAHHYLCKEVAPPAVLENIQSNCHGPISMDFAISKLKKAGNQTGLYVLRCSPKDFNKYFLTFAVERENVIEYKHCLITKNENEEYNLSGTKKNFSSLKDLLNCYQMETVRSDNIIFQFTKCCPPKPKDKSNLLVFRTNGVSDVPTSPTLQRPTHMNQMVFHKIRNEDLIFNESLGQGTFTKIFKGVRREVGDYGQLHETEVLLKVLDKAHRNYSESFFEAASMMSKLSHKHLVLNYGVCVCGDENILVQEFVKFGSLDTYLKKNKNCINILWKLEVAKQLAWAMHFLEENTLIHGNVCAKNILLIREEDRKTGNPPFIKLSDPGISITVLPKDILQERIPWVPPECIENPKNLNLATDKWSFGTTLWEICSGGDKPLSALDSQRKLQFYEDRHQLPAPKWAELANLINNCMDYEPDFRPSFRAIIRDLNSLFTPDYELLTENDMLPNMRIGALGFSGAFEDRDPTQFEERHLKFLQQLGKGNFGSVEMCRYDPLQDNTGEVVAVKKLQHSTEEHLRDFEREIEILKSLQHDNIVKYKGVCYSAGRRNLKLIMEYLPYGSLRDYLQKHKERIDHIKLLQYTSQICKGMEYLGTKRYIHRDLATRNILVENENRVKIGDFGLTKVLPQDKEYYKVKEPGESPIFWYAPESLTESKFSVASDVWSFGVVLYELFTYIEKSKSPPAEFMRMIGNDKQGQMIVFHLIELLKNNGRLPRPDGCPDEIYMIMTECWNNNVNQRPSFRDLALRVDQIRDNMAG

As to `N#CCC(=O)N1CC2(CCC(c3cccc4nc(NC(=O)[C@@H]5CC5(F)F)nn34)CC2)C1` [US12419873, Compound 9-5], the IC50 in test [1] is 175 nM; in test [2], 224 nM; in test [3] it was 624 nM; in test [4], more than 10000 nM.
